Values of other authors as cited in patent US20250090695A1, “IMMUNOSTIMULANT-CYTOTOXIC CONJUGATE COMPOSITION AND METHODS FOR CANCER TREATMENT” (The Research Foundation for the State University of New York, priority 2022, published 2025).

Details: patients; versus 11.2 months with placebo; cited from earlier work

In the case of Radium-223, the Overall survival is listed as 14 months.
